The test system of one assay is myogenin. Description: Myogenin protein level by Western blot in differentiating C2C12 cells. Conditions: 1, 10 and 50 µM, differentiation medium. Type of assay: cell-based, Mouse. The protocol:
(§1) Mouse myoblasts of the C2C12 cell line (ATCC) were seeded at a plating density of 7000 cells/cm2 in 6-well plates. They were grown in DMEM high glucose (4.5g/l) supplemented with gentamycin (50 µg/mL), amphotericin (50 µg/mL), and fetal calf serum (10%). Terminal differentiation was induced at cell confluence by lowering the medium serum concentration (0.5%).
(§2) When indicated, FuFA-F2 was added to the culture medium at the indicated concentration. For the differentiation studies, FuFA-F2 was added at the confluence at the same time as the change in media condition. Three doses of FuFA-F2 were studied at a final concentration of 1, 10, or 50 µM. Human insulin was used at a concentration of 100 nM.
Protein levels were assessed by Western blotting. Total proteins were measured using the Bio-Rad protein assay (Hercules, CA, USA) according to the manufacturer's instructions. Total proteins were lysed in RIPA buffer (20mM Tris, 150mM NaCl, 1mM EDTA, 1% NP40, pH 7.5 + complete cocktail protease inhibitors + Pierce phosphatase inhibitors tablet). 40 µg of cell extracts were loaded and blotted onto a nitrocellulose membrane. The membranes were washed, blocked with 5% nonfat milk and incubated in primary antibody overnight at 4°C. […]

The subject of a further assay is LC3-II/LC3-I. Briefly: Autophagic flux, conversion of LC3-I to LC3-II by Western blot in C2C12 myotubes. The assay is classed as cell-based, Mouse. The following applies: whatever the dose. The protocol:
as §1, §2
Protein levels were assessed by Western blotting. Total proteins were measured using the Bio-Rad protein assay (Hercules, CA, USA) according to the manufacturer's instructions. […]
AMP activated protein kinase (AMPK) is a crucial cellular energy sensor protein and is activated when intracellular ATP level decreases to regulate autophagy initiation (Hardie et al., 2012, Nat Rev Mol Cell Bio, Vol. 13 (4) : 251-262). […] The autophagy-related signaling was further evaluated by measuring the MTORC1 mediated phosphorylation […] at Ser757 which disrupts the interaction between ULK1 and AMPK. […] Therefore, the autophagic flux was assessed by measuring the conversion of LC3-I to LC3-II, through lipidation.
On the technique in general: In western blotting, separated proteins are transferred to a membrane and probed.

The next assay deals with C57Bl6 mice. Description: Oral gavage supplementation in C57Bl6 mice: food intake, body weight, body composition (EchoMRI), muscle weight. The assay is classed as in vivo. The following applies: 3 and a half weeks. As to the method: (§3) Male C57Bl/6J wild-type mice were obtained from Janvier at 12 weeks of age and were randomly assigned to one of the two groups based on body weight. Mice were housed 2 per cage and maintained on a 12-hour light/dark cycle (lights on at 7:30 pm). Food and water were provided ad libitum. Enrichment (nesting cotton squares) was provided in each cage. Mice were treated once daily by oral gavage with vehicle (50% PEG-400, 0.5% Tween 80, and 49.5% distilled water) or FuFA-F2 (20 mg/kg). All animal experiments were performed according to European directives (86/609/CEE and 2010/63/CEE) and approved by the regional animal experimentation ethics committe: Région Languedoc-Roussillon (No36). Our institutional guidelines for the care and use of laboratory animals were observed. Our animal facility is approved by the Departmental Veterinary Services (No. E34-172-10, 2019/03/04) and the Ministry of Research (DUO No. 7053, 2020/02/26). according to the European Directive 210-63-EU, mice were observed daily for the general health status and mortality scoring.
To investigate in vivo the potential impact a furan-containing compound under the form of a triacylgycerol of FuFA-F2 on muscle characteristics, C57Bl6 mice were supplemented by oral gavage with vehicle or FuFA-F2 (20mg/kg) for 3 and a half weeks (Fig. 6A). […] However, fat mass was similar between the two groups (Fig. 6E).

The test system of another assay is complex IV. Briefly: Mitochondrial complex IV activity in quadriceps of supplemented C57Bl6 mice. The assay is classed as in vivo. Conditions: 20mg/kg oral gavage, vs control. The protocol: as §3, with “Our institutional guidelines for the care and use of laboratory animals were observed. Our animal facility is approved by the Departmental Veterinary Services (No. E34-172-10, 2019/03/04) and the Ministry of Research (DUO No. 7053, 2020/02/26). according to the European Directive 210-63-EU, mice were observed daily for the general health status and mortality scoring.” left out
Mitochondrial respiratory complex activities were determined as previously described (Casas et al., 2008, PloS ONE, Vol. 3(6) : e2501). Citrate synthase (CS) activity was measured according to Srere (Srere et al., 1967, Science, Vol. 158(3803) : 936-937) by following the color formation of 5-thio-2-nitrobenzoic acid at 412 nm. The enzymatic activity of complex IV (cytochrome c oxidase) was measured according to Wharton and Tzagoloff (Wharton et al., 1967, Methods in Enzymology, Vol. 10, Edn Elsevier BV, Amsterdam, The Netherlands), a spectrophotometer following the oxidation of reduced cytochrome c at 550 nm, pH 7.4, and 37 °C. […]

The mark [1] stands for this setting: 20mg/kg oral gavage once daily, triacylglycerol of FuFA-F2, vs vehicle.
Setting [2] is: 20mg/kg oral gavage, vs vehicle.

`CCCCCc1cc(C)c(CCCCCCCCC(=O)O)o1` [FuFA-F2]: in the assay on myogenin, the expression of myogenin entry was “no effect”. In the assay on LC3-II/LC3-I, the “ratio of LC3-II/LC3-I” value is listed as “decreased”. Besides, in the assay on C57Bl6 mice (setting [1]), the body weight entry was “significantly higher” and the food intake entry is given as “ate more”. In addition, in the assay on C57Bl6 mice (setting [2]), the “weight of the gastrocnemius” value is given as “significantly increased” and the “weight of the quadriceps” value is given as “significantly increased”. Also, the fat mass result in the assay on C57Bl6 mice (EchoMRI, 20mg/kg oral gavage, between the two groups) is recorded as “similar”. In the assay on C57Bl6 mice (EchoMRI, 20mg/kg oral gavage, vs control mice), the lean mass entry was “greater”. In the assay on complex IV, the “complex IV activity of mitochondrial respiratory chain complexes” value is “significant increase”.

Source of the values: patent EP4385508A1, “FURAN FATTY ACIDS FOR ENHANCING MUSCLE MASS” (Centre de Coopération Internationale en Recherche …, priority 2022, dated 2024).
